# The kinase profiling compilation of Christmann-Franck et al. (2016)
# Tests used:
# Assay in all cases: KINOMEscan competition binding
# Details in all cases: compound 10.0 µM
# BRSK2 (human) = BRSK2 (human) (UniProt Q8IWQ3)
# CDK16 (human) = CDK16 (human) (UniProt Q00536)
# CIT (human) = CIT (human) (UniProt O14578)
# CLK1 (human) = CLK1 (human) (UniProt P49759)
# CLK3 (human) = CLK3 (human) (UniProt P49761)
# CLK4 (human) = CLK4 (human) (UniProt Q9HAZ1)
# CSNK1D (human) = CSNK1D (human) (UniProt P48730)
# DAPK1 (human) = DAPK1 (human) (UniProt P53355)
# DCLK3 (human) = DCLK3 (human) (UniProt Q9C098)
# DMPK (human) = DMPK (human) (UniProt Q09013)
# FLT3 (human) = FLT3 (human) (UniProt P36888)
# [1] = system: FLT3 (human), P36888 [D835H]
# [2] = system: FLT3 (human), P36888 [D835Y]
# [3] = system: FLT3 (human), P36888 [ITD]
# [4] = system: FLT3 (human), P36888 [K663Q]
# GSK3A (human) = GSK3A (human) (UniProt P49840)
# [5] = target: JAK1 JH2 pseudokinase (human) (UniProt P23458)
# [6] = system: KIT (human), P10721 [V559D/T670I]
# MAP2K3 (human) = MAP2K3 (human) (UniProt P46734)
# MAP4K2 (human) = MAP4K2 (human) (UniProt Q12851)
# MAPK8 (human) = MAPK8 (human) (UniProt P45983)
# MELK (human) = MELK (human) (UniProt Q14680)
# MKNK1 (human) = MKNK1 (human) (UniProt Q9BUB5)
# MKNK2 (human) = MKNK2 (human) (UniProt Q9HBH9)
# MYLK3 (human) = MYLK3 (human) (UniProt Q32MK0)
# MYLK4 (human) = MYLK4 (human) (UniProt Q86YV6)
# NEK2 (human) = NEK2 (human) (UniProt P51955)
# PDGFRB (human) = PDGFRB (human) (UniProt P09619)
# PIM1 (human) = PIM1 (human) (UniProt P11309)
# PIP5K1A (human) = PIP5K1A (human) (UniProt Q99755)
# PLK4 (human) = PLK4 (human) (UniProt O00444)
# PRKD1 (human) = PRKD1 (human) (UniProt Q15139)
# PRKD3 (human) = PRKD3 (human) (UniProt O94806)
# RIOK3 (human) = RIOK3 (human) (UniProt O14730)
# RIPK4 (human) = RIPK4 (human) (UniProt P57078)
# RPS6KA4 KD2 (human) = RPS6KA4 KD2 (human) (UniProt O75676)
# RPS6KA6 KD2 (human) = RPS6KA6 KD2 (human) (UniProt Q9UK32)
# STK11 (human) = STK11 (human) (UniProt Q15831)
# STK16 (human) = STK16 (human) (UniProt O75716)
# TGFBR2 (human) = TGFBR2 (human) (UniProt P37173)
# TNK1 (human) = TNK1 (human) (UniProt Q13470)
# ULK2 (human) = ULK2 (human) (UniProt Q8IYT8)
# Chain of PDGFRB (human) (P09619 whole entry, looked up): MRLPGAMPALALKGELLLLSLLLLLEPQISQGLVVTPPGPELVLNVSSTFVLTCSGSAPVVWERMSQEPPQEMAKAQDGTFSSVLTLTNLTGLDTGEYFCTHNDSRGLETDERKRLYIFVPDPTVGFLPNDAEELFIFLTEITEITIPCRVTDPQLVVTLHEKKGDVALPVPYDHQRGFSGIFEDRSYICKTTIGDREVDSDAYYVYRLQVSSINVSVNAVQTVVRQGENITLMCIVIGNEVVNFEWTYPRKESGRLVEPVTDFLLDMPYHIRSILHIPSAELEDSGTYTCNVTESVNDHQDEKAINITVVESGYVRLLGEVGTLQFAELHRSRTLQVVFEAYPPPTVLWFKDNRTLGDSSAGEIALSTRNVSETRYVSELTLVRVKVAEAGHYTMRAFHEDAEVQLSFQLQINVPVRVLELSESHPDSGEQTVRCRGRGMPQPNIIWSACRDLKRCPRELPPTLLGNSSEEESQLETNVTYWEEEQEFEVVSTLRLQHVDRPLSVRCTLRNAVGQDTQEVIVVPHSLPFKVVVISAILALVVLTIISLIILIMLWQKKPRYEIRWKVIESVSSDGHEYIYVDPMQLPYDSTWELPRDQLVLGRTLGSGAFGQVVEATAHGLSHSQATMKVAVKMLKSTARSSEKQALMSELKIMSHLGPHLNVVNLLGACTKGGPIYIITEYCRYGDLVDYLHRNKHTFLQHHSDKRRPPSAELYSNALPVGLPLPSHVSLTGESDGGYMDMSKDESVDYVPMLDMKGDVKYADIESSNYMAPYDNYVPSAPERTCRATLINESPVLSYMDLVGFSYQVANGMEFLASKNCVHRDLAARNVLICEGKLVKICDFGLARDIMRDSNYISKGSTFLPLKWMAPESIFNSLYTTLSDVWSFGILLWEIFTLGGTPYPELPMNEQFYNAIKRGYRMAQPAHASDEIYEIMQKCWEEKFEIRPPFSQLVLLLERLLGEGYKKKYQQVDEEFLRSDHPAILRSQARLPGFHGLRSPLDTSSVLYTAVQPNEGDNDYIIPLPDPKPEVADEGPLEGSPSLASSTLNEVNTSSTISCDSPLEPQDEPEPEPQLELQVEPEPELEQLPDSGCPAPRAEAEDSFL
# Chain of TGFBR2 (human) (P37173 whole entry, looked up): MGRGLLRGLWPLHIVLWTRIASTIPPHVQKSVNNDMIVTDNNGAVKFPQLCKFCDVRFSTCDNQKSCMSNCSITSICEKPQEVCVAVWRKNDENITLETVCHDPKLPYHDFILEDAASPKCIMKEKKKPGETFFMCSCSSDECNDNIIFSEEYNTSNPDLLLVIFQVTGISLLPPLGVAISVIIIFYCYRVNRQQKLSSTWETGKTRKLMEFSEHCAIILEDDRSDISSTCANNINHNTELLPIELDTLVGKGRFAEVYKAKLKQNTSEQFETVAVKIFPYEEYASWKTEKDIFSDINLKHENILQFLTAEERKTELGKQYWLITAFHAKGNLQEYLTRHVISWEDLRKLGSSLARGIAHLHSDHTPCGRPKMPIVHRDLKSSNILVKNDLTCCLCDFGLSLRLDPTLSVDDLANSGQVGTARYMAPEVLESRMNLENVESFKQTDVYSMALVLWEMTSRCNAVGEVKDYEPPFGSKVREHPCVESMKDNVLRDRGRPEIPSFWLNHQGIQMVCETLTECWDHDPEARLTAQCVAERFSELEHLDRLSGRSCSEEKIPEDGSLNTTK
# Chain of MAPK8 (human) (P45983 whole entry, looked up): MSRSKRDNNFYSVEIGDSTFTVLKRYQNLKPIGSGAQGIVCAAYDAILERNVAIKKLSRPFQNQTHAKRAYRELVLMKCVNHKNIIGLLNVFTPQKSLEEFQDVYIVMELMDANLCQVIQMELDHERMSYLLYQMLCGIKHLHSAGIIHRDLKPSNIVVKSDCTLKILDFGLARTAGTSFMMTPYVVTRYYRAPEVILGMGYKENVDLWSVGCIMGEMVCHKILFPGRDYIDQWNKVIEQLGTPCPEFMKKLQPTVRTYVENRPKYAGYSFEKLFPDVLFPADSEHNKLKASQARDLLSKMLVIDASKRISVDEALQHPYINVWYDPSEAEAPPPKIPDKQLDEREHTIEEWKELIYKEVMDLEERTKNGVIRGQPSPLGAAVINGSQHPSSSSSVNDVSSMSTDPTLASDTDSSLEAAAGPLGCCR
# Chain of PRKD1 (human) (Q15139 whole entry, looked up): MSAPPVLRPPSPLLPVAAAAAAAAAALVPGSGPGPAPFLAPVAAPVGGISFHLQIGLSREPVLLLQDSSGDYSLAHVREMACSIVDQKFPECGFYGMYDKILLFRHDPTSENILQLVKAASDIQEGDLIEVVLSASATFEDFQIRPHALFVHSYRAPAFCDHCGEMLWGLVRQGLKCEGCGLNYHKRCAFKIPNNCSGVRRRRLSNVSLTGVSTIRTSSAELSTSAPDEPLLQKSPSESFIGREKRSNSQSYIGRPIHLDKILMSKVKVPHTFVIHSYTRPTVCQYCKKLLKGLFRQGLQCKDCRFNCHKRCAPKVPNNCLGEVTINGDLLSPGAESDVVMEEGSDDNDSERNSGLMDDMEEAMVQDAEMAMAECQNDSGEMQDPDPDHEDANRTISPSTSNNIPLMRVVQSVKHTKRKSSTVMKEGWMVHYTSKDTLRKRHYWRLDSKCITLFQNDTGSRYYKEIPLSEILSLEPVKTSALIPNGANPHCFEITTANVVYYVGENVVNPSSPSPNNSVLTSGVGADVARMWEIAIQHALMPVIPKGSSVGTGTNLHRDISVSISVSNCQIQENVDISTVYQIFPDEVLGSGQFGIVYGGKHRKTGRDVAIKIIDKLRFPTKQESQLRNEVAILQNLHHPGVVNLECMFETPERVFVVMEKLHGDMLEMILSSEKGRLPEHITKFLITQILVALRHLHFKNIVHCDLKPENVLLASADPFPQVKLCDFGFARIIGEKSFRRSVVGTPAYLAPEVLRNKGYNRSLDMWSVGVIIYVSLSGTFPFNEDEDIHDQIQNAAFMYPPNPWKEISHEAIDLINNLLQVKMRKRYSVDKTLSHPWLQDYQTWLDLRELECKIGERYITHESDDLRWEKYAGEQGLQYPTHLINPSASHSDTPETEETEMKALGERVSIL
# Chain of MELK (human) (Q14680 whole entry, looked up): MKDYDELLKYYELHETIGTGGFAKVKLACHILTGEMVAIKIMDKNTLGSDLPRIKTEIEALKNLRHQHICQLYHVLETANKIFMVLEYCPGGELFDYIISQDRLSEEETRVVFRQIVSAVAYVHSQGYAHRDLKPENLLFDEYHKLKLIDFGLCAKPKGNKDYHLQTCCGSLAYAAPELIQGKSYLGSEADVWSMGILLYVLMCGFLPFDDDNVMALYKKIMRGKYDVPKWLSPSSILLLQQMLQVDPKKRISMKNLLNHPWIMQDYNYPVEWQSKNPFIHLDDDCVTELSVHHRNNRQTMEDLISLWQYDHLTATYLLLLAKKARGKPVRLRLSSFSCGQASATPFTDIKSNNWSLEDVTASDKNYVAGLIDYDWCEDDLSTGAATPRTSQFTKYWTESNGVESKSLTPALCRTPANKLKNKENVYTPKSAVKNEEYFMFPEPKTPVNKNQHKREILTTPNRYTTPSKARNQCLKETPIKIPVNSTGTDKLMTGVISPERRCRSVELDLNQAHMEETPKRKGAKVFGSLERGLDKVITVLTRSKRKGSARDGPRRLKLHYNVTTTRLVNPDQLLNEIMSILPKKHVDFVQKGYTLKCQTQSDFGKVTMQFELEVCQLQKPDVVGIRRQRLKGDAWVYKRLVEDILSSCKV
# Chain of PRKD3 (human) (O94806 whole entry, looked up): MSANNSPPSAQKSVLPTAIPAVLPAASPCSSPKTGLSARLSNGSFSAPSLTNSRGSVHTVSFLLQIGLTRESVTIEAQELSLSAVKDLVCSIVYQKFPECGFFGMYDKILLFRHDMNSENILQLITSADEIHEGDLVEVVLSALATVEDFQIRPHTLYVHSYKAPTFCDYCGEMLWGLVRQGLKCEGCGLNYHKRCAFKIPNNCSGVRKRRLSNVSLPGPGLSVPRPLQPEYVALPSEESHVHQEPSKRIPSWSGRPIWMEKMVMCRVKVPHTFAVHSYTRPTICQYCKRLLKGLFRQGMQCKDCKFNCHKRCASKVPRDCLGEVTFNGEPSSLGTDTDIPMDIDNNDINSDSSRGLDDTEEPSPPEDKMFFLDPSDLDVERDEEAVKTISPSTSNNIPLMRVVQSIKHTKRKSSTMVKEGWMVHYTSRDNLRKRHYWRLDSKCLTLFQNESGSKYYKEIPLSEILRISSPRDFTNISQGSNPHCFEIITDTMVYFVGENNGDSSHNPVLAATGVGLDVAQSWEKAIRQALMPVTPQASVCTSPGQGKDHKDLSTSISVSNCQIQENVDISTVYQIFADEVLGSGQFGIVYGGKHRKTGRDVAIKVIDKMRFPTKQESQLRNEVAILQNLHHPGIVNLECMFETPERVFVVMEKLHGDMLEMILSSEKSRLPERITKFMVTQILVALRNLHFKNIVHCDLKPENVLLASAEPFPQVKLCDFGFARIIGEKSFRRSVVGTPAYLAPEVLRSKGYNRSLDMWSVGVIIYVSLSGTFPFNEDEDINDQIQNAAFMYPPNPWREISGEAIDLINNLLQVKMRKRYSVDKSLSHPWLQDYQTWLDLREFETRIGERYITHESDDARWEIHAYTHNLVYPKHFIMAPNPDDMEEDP
# Chain of MYLK4 (human) (Q86YV6 whole entry, looked up): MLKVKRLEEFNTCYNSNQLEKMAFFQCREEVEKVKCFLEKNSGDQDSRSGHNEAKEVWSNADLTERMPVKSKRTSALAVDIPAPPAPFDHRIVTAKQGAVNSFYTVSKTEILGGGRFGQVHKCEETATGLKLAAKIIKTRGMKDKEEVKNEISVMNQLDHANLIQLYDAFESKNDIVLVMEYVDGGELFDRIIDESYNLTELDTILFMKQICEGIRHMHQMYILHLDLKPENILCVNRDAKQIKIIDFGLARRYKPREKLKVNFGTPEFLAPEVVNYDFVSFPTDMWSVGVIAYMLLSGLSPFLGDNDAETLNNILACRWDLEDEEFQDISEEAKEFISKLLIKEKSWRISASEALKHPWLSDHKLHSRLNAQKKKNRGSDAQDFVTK
structure (smiles),measurement,setting,value
COc1cc(N2CCN(C)CC2)ccc1Nc1ncc2c(n1)N(C)c1ccccc1N(C)C2=O,"kinase still bound, per cent of control",BRSK2 (human),85%
same,"kinase still bound, per cent of control",CDK16 (human),93%
same,"kinase still bound, per cent of control",CIT (human),95%
same,"kinase still bound, per cent of control",CLK1 (human),66%
same,"kinase still bound, per cent of control",CLK3 (human),100%
same,"kinase still bound, per cent of control",CLK4 (human),99%
same,"kinase still bound, per cent of control",CSNK1D (human),76%
same,"kinase still bound, per cent of control",DAPK1 (human),82%
same,"kinase still bound, per cent of control",DCLK3 (human),100%
same,"kinase still bound, per cent of control",DMPK (human),100%
same,"kinase still bound, per cent of control",FLT3 (human),96%
same,"kinase still bound, per cent of control",[1],86%
same,"kinase still bound, per cent of control",[2],75%
same,"kinase still bound, per cent of control",[3],92%
same,"kinase still bound, per cent of control",[4],92%
same,"kinase still bound, per cent of control",GSK3A (human),100%
same,"kinase still bound, per cent of control",[5],97%
same,"kinase still bound, per cent of control",[6],84%
same,"kinase still bound, per cent of control",MAP2K3 (human),92%
same,"kinase still bound, per cent of control",MAP4K2 (human),100%
same,"kinase still bound, per cent of control",MAPK8 (human),86%
same,"kinase still bound, per cent of control",MELK (human),80%
same,"kinase still bound, per cent of control",MKNK1 (human),100%
same,"kinase still bound, per cent of control",MKNK2 (human),0.55%
same,"kinase still bound, per cent of control",MYLK3 (human),100%
same,"kinase still bound, per cent of control",MYLK4 (human),100%
same,"kinase still bound, per cent of control",NEK2 (human),96%
same,"kinase still bound, per cent of control",PDGFRB (human),98%
same,"kinase still bound, per cent of control",PIM1 (human),91%
same,"kinase still bound, per cent of control",PIP5K1A (human),95%
same,"kinase still bound, per cent of control",PLK4 (human),67%
same,"kinase still bound, per cent of control",PRKD1 (human),87%
same,"kinase still bound, per cent of control",PRKD3 (human),85%
same,"kinase still bound, per cent of control",RIOK3 (human),77%
same,"kinase still bound, per cent of control",RIPK4 (human),100%
same,"kinase still bound, per cent of control",RPS6KA4 KD2 (human),88%
same,"kinase still bound, per cent of control",RPS6KA6 KD2 (human),60%
same,"kinase still bound, per cent of control",STK11 (human),100%
same,"kinase still bound, per cent of control",STK16 (human),100%
same,"kinase still bound, per cent of control",TGFBR2 (human),98%
same,"kinase still bound, per cent of control",TNK1 (human),4.9%
same,"kinase still bound, per cent of control",ULK2 (human),100%
COc1cc(N2CCN(C)CC2)ccc1Nc1ncc2c(n1)N(C)c1sccc1C(=O)N2C,"kinase still bound, per cent of control",BRSK2 (human),100%
same,"kinase still bound, per cent of control",CDK16 (human),97%
same,"kinase still bound, per cent of control",CIT (human),85%
same,"kinase still bound, per cent of control",CLK1 (human),56%
same,"kinase still bound, per cent of control",CLK3 (human),93%
same,"kinase still bound, per cent of control",CLK4 (human),66%
same,"kinase still bound, per cent of control",CSNK1D (human),81%
same,"kinase still bound, per cent of control",DAPK1 (human),58%
same,"kinase still bound, per cent of control",DCLK3 (human),18%
same,"kinase still bound, per cent of control",DMPK (human),100%
same,"kinase still bound, per cent of control",FLT3 (human),99%
same,"kinase still bound, per cent of control",[1],80%
same,"kinase still bound, per cent of control",[2],74%
same,"kinase still bound, per cent of control",[3],99%
same,"kinase still bound, per cent of control",[4],93%
same,"kinase still bound, per cent of control",GSK3A (human),100%
same,"kinase still bound, per cent of control",[5],78%
same,"kinase still bound, per cent of control",[6],82%
same,"kinase still bound, per cent of control",MAP2K3 (human),39%
same,"kinase still bound, per cent of control",MAP4K2 (human),96%
same,"kinase still bound, per cent of control",MAPK8 (human),86%
same,"kinase still bound, per cent of control",MELK (human),70%
same,"kinase still bound, per cent of control",MKNK1 (human),77%
same,"kinase still bound, per cent of control",MKNK2 (human),24%
same,"kinase still bound, per cent of control",MYLK3 (human),86%
same,"kinase still bound, per cent of control",MYLK4 (human),100%
same,"kinase still bound, per cent of control",NEK2 (human),83%
same,"kinase still bound, per cent of control",PDGFRB (human),51%
same,"kinase still bound, per cent of control",PIM1 (human),66%
same,"kinase still bound, per cent of control",PIP5K1A (human),65%
same,"kinase still bound, per cent of control",PLK4 (human),9.9%
same,"kinase still bound, per cent of control",PRKD1 (human),12%
same,"kinase still bound, per cent of control",PRKD3 (human),5.8%
same,"kinase still bound, per cent of control",RIOK3 (human),52%
same,"kinase still bound, per cent of control",RIPK4 (human),95%
same,"kinase still bound, per cent of control",RPS6KA4 KD2 (human),13%
same,"kinase still bound, per cent of control",RPS6KA6 KD2 (human),6%
same,"kinase still bound, per cent of control",STK11 (human),90%
same,"kinase still bound, per cent of control",STK16 (human),81%
same,"kinase still bound, per cent of control",TGFBR2 (human),94%
same,"kinase still bound, per cent of control",TNK1 (human),7%
same,"kinase still bound, per cent of control",ULK2 (human),1.2%
